Test results: patent US8933071B2, “Dimethyl fasudil for inducing polyploidization of megakaryocytes and for treating blood and bone marrow diseases and disorders” (Northwestern University, priority 2008, dated 2015)

What was measured:
[1] = test system: GIME cells; type: cell-based; conditions: 10 μM, 48 hours, DMSO 0.3%
Description: (§1) DNA content was then assessed by flow cytometry. Numbers above the bar indicate % of cells ≧8N. b) After 48 hours, GIME cells from a) were stained with anti-CD42 antibodies and the cell surface expression of CD42 was evaluated by flow cytometry.
(§2) In collaboration with the Broad Institute, a high throughput screen for small molecules was conducted to identify small molecules that preferentially induce polyploidization or differentiation of megakaryocytes. We screened 10,000 compounds from the Broad's extensive collection of small molecules (including known bioactives, kinase and HDAC inhibitors, and natural products) to identify inducers of megakaryocyte polyploidization. The screen was performed in the following manner: 1) 4,000 CMK (human megakaryocytic leukemia) cells were plated into each well of a 384-well plate, 2) 100 n1 of compounds (yielding a final concentration of 10 μM) were pinned into the wells, 3) plates were incubated at 37° C. for 72 hours, 4) cells were fixed and stained with Hoescht, and 5) plates were imaged using an ImageXpressMICRO high content imager with 20× objective. Nine images per well were collected. 6) Data were analyzed using both MetaXpress software and “Cell Profiler,” software designed at MIT and the Broad Institute. Seventy-two plates containing duplicates of nearly 10,000 small molecules were screened.

[2] = test system: CMK cells; assay: Polyploidization of CMK cells (DNA content); type: cell-based, human; conditions: CMK cells
Description: (§3) (A) Y10, (B) GIME, and (C) CMK cells were grown in the presence of TPO, SU6656, or vehicle (DMSO) for 72 hours. DNA content was measured by flow cytometry. The percentages of cells that reach a DNA content of ≧8N are boxed in A and C, those equal to 8N are boxed in B. D) CMK cells were grown as in (C), and cell numbers were enumerated at 0, 24, 48 and 72 h.
(§4) To study how megakaryocytes switch from a proliferative to endomitotic cell cycle, the Src kinase inhibitor SU6656 is being utilized.
In collaboration with the Broad Institute, a high throughput screen for small molecules was conducted to identify small molecules that preferentially induce polyploidization or differentiation of megakaryocytes. We screened 10,000 compounds from the Broad's extensive collection of small molecules (including known bioactives, kinase and HDAC inhibitors, and natural products) to identify inducers of megakaryocyte polyploidization. […] 6) Data were analyzed using both MetaXpress software and “Cell Profiler,” software designed at MIT and the Broad Institute. […]

[3] = test system: megakaryocyte colonies (CFU-MK) from MPD bone marrow; assay: CFU-MK assay, bone marrow mononuclear cells from a patient with ET; type: cell-based, human; conditions: two doses, 10 days
Description: FIG. 5 illustrates that the Rho kinase inhibitor dimethylfasudil (DMF) (also know as “ROCK inhibitor”) blocks formation of megakaryocyte colonies (CFU-MK) by bone marrow from patients with Myeloproliferative Disease (MPD).
Data with Patient Samples. Two lead compounds were tested on samples from both MPD (myeloproliferative disease) patients and AMKL (acute megakaryocytic leukemia) patients. […] Referring to FIG. 5, bone marrow mononuclear cells from a patient with ET were cultured with two doses of DMF for 10 days. […] Referring to FIG. 8, bone marrow samples from patients with AMKL were cultured in DMSO (control) or DMF (at 5 μM) for 14 days. Colonies were stained with anti-CD41 antibody and visualized by microcopy (not shown). Total numbers of CD41+ megakaryocyte colonies are shown.
MPDs Patient Specimens. Mononuclear cells from bone marrow of patients were obtained by informed consent from patients at Northwestern Feinberg School of Medicine. […] The cells were stained with 0.4% trypan blue solution for 5 minutes and live cells were counted. […]
CFU-MK (Colony forming units-megakarvocvtes) assay. […] Slides were scored microscopically, and megakaryocyte colonies were defined as colonies with at least three megakaryocytes.

[4] = test system: CD41+ megakaryocytes obtained from human MPD bone marrow; type: cell-based; conditions: ET patient bone marrow, TPO, 5 days
Description: Two lead compounds were tested on samples from both MPD (myeloproliferative disease) patients and AMKL (acute megakaryocytic leukemia) patients. […] Referring to FIG. 8, bone marrow samples from patients with AMKL were cultured in DMSO (control) or DMF (at 5 μM) for 14 days. Colonies were stained with anti-CD41 antibody and visualized by microcopy (not shown). Total numbers of CD41+ megakaryocyte colonies are shown.
Mononuclear cells from bone marrow of patients were obtained by informed consent from patients at Northwestern Feinberg School of Medicine. Mononuclear cells were separated from marrow with Ficoll (GE Healthcare life sciences, Piscataway, N.J.) and resuspended in IMDM (Iscove's Modified Dulbecco's Media) media without serum. The cells were stained with 0.4% trypan blue solution for 5 minutes and live cells were counted. Live cells were assayed in CFU-MK (“Colony forming units-megakaryocytes”) and BFU-E (“Burst forming unit-erythroid”) assays as well as in liquid culture.
Marrow cells from ET patients were also cultured in RPMI with 10% FBS in the presence of recombinant human TPO (thrombopoeitin, 50 ng/ml). […] DNA content of both CD41+ cells and CD41-negative cells was analyzed by utilizing a BD LSRII flow cytometer (BD Biosciences San Jose, Calif.).

[5] = test system: non-megakaryocytic cells (CD41-negative); assay: Effect on non-megakaryocytic (CD41-negative) cells in human CD34+ culture; type: cell-based; conditions: CD41-negative population
Description: FIG. 4 illustrates that DMF induces polyploidization of normal human megakaryocytes and that its activity is restricted to the CD41+ population. Human CD34+ cells were cultured with TPO for 12 days and then fixed and stained with DAPI. DMSO or DMF were added to the culture after 9 days. DNA content was then assessed by flow cytometry. Numbers above the bar indicate % of cells ≧8N.
In collaboration with the Broad Institute, a high throughput screen for small molecules was conducted to identify small molecules that preferentially induce polyploidization or differentiation of megakaryocytes. We screened 10,000 compounds from the Broad's extensive collection of small molecules (including known bioactives, kinase and HDAC inhibitors, and natural products) to identify inducers of megakaryocyte polyploidization. The screen was performed in the following manner: 1) 4,000 CMK (human megakaryocytic leukemia) cells were plated into each well of a 384-well plate, 2) 100 n1 of compounds (yielding a final concentration of 10 μM) were pinned into the wells, 3) plates were incubated at 37° C. for 72 hours, 4) cells were fixed and stained with Hoescht, and 5) plates were imaged using an ImageXpressMICRO high content imager with 20× objective. Nine images per well were collected. 6) Data were analyzed using both MetaXpress software and “Cell Profiler,” software designed at MIT and the Broad Institute. […]

[6] = test system: GIME cells; assay: Polyploidization of GIME cells (DNA content by flow cytometry); type: cell-based; conditions: GIME cells, 48 hours, DAPI, flow cytometry
Description: as §3, §1, §4

[7] = test system: CMK (human megakaryocytic leukemia) cells; assay: High throughput screen for inducers of megakaryocyte polyploidization; type: cell-based; conditions: 10 μM, 72 hours, Hoescht stain, high content imaging
Description: as §2

dimethylfasudil [DMF]
expression of the late megakaryocyte marker CD42 [1]: 66.3%
induction of polyploidization [2]: potent inducer of polyploidization
formation of aberrant megakaryocyte colonies (CFU-MK) [3]: potently blocked formation
polyploidization of bone marrow megakaryocytes [4]: potently induced polyploidization
effect on non-megakaryocytic (CD41-negative) cells [5]: no effect
induction of polyploidization [6]: potent inducers
induction of polyploidization ([6]; listed as Rho-kinase inhibitor): potent inducer of polyploidization
positive in polyploidization screen [7]: positives
